Source: patent publication US6555370B1, “Bifunctional selectable fusion genes” (Immunex Corporation, priority 1990, dated 2003)
“Also recorded” adds a separate entry of the source.

Columns and labels:
[1] = tested on: NIH/3T3 cells; assay: Long-term cell proliferation assay for GCV sensitivity (colony formation); type: cell-based
Protocol: Uninfected NIH/3T3 cells and the infected NIH/3T3 cell pools were plated at relatively low cell density (10^4 cells/[…]) in complete growth medium and allowed to attach for 4 hours. The medium was then supplemented with hygromycin B (500 μg/ml), with or without 1 μM GCV, and the cells incubated for a period of 10 days. The medium was then removed and the cells were fixed in situ with 100% methanol and stained with methylene blue. […] Colonies of cells resistant to both Hm and GCV were obtained at a low frequency (10^−4-10^−3) from the retrovirus-infected populations (FIG. 6, plates e and g). The proviruses present in the cells that gave rise to these colonies had likely suffered point mutations, or very small deletions or rearrangements in the HSV-I TK moiety which eliminated the ability to phosphorylate GCV. Similar results were also obtained with Rat-2 cell lines infected with tgLS(+)HyTK or with tgLS(−)CMV/HyTK (data not shown).

[2] = tested on: cells expressing the HSV-I TK gene; conditions: cited from earlier work
[3] = tested on: transfected NIH/3T3 cells; assay: Short term cell proliferation assay for GCV sensitivity; type: cell-based
Protocol: (§1) C. Negative Selection of Cells Containing the HyTK (SEQ ID NO:1 Selectable Fusion Gene. To investigate the utility of the HyTK (SEQ ID NO:1 selectable fusion gene for negative selection, the colonies resulting from each transfection (Table 1) were pooled and expanded into cell lines for further analysis. The Hm^r NIH/3T3 cell pools and the Hm^r and HAT^r Rat-2 cell pools were tested for GCV^s in a short term cell proliferation assay as follows.
(§2) The transfected NIH/3T3 and Rat-2 cells (3×10^4 of each) were seeded into 9-cm tissue culture dishes in complete growth medium, and allowed to attach for 4 hours. The medium was then supplemented with various concentrations of GCV (Syntex, Palo Alto, Calif.), and the cells incubated for an additional 60 hours. At this time, the medium was removed, the attached cells were harvested by trypsinization and stained with trypan blue, and the viable cells were counted. Cell growth was expressed as a fraction of the cell growth observed in the absence of GCV. The results shown are the average of triplicate assays.

[4] = tested on: transfected Rat-2 cells; assay: as above; type: cell-based
Protocol: as §1, §2

[5] = tested on: murine sarcoma (K3T3); conditions: syngeneic mice; Moolten and Wells 1990; cited from earlier work
[6] = tested on: NIH/3T3 cells; assay: Long-term proliferation assay for 5-FC sensitivity; type: cell-based; conditions: 10-14 days
Protocol: C. Negative Selection of Cells Containing the CD-neo (SEQ ID NO:3 Selectable Fusion Gene. To investigate the utility of the neo and CD-neo (SEQ ID NO:3 selectable fusion genes for negative selection, the colonies resulting from each transfection were pooled and expanded into cell lines for further analysis. The NIH/3T3 cells, or NIH/3T3 cells infected with the tgLS(+)neo or tgLS(+)CD-neo retroviruses were assayed for 5-FC^s using a long-term proliferation assay.
First, 1×10^4 cells were seeded into 10 cm tissue culture dishes in complete growth medium and allowed to attach for 4 hours. The medium was then supplemented with various concentrations of G-418 and/or 5-FC (Sigma), after which the cells were incubated for a further 10-14 days. The medium was replaced every 2-4 days. The cells were then fixed in situ with 100% methanol and stained with methylene blue.

[7] = NIH/3T3 cells infected with tgLS(+)CD-neo, 800 μg/ml G-418, 100 μg/ml 5-FC
[8] = NIH/3T3 cells infected with tgLS(+)neo, 800 μg/ml G-418, 100 μg/ml 5-FC
[9] = uninfected NIH/3T3 cells, 800 μg/ml G-418 or 100 μg/ml 5-FC

## CN[C@H]1C[C@@H](N)[C@H](O)[C@@H](O[C@@H]2O[C@H](CO)[C@H](O)[C@@H]3OC4(O[C@H]23)O[C@H]([C@@H](N)CO)[C@H](O)[C@H](O)[C@H]4O)[C@@H]1O (stereo partly drawn) [Hm, hygromycin B]
[1]; uninfected NIH/3T3, 500 μg/ml Hm, 10 days
  Growth of uninfected cells in Hm: completely killed

## Nc1nc(O)c2ncn(COC(CO)CO)c2n1 [GCV, ganciclovir]
[2]; same transgenic mice, Moolten et al. 1990
  Regression of Abelson leukemia virus-induced lymphomas: full regression
[2]; transgenic animals, Heyman et al. 1989
  Ablation of cells expressing the HSV-I TK gene: selective ablation
[3]; Mus musculus, NIH3T3, NIH/3T3 cells transfected with tgCMV/HyTK, 1 μM GCV, 60 hours, read-out: Degree of inhibition of cell growth
  inhibition at 1 µM: ~100%
[3]; NIH/3T3 cells transfected with tgCMV/HyTK
  Effect of GCV on cell growth: inhibits growth
[3]; NIH/3T3 cells transfected with tgCMV/hygro, 0.03 μM-1.0 μM GCV
  Effect of GCV on cell growth: does not inhibit growth; also recorded: not adversely affected
[4]; Rat-2, both Hm^r and HAT^r selected pools
  Sensitivity to GCV of Rat-2 cell pools transfected with tgCMV/HyTK relative to Rat-2 cells transfected with tgCMV/TK: over 30 fold
[4]; Rat-2 cells transfected with tgCMV/HyTK (selected for Hm^r or HAT^r), lowest concentration 0.03 μM GCV
  Effect of GCV on cell growth: inhibits growth; also recorded: almost completely inhibited
[4]; Rat-2 cells transfected with tgCMV/TK, higher concentrations required than for tgCMV/HyTK cells
  Effect of GCV on cell growth: inhibits growth; also recorded: inhibited
[4]; Rat-2 cells transfected with tgCMV/hygro, 0.03 μM-1.0 μM GCV
  Effect of GCV on cell growth: did not inhibit growth; also recorded: not inhibited
[1]; NIH/3T3 cell pools infected with tgLS(+)HyTK or tgLS(−)CMV/HyTK, 500 μg/ml hygromycin B plus 1 μM GCV, 10 days
  Growth as measured by colony formation: almost completely inhibited
[1]; cells infected with HyTK retroviral vectors
  Infected cells killed by GCV: > 99.9%
[1]; retrovirus-infected NIH/3T3 populations, 500 μg/ml Hm plus 1 μM GCV
  Frequency of colonies resistant to both Hm and GCV: 10^−4-10^−3
[1]; uninfected NIH/3T3, 1 μM GCV, 10 days
  Growth of uninfected cells in GCV: resistant
[5]
  Eradication of tumors induced by the sarcoma cells: completely eradicated

## Nc1nc(=O)[nH]cc1F [5-FC, 5-fluorocytosine]
[6]; [7]
  Sensitivity or resistance of cells to the drug: sensitive
[6]; [8]
  Sensitivity or resistance of cells to the drug: resistant
[6]; [9]
  Sensitivity or resistance of cells to the drug: resistant

## CN[C@@H]1[C@@H](O)[C@@H](O[C@@H]2[C@@H](O)[C@H](O[C@H]3O[C@H]([C@@H](C)O)[C@@H](O)[C@H](O)[C@H]3N)[C@@H](N)C[C@H]2N)OC[C@]1(C)O [G-418]
[6]; [7]
  Sensitivity or resistance of cells to the drug: resistant
[6]; [8]
  Sensitivity or resistance of cells to the drug: resistant
[6]; [9]
  Sensitivity or resistance of cells to the drug: sensitive
